Test results from US20100075960A1 (priority 2006, published 2010).

What follows are molecules tested on HCT116 (assay: Inhibition of cell proliferation, HCT116). Conditions: Homo sapiens, HCT-116; 72 h treatment; methylene blue or CellTiter-Glo.
Type: cell-based
Method: II. Inhibition of Cell Proliferation by PLK1 Inhibitors.
Exponentially growing cell lines of different tumor origins, cultured in appropriate media containing 10% fetal bovine serum at 37° C. in a 5% CO2 incubator were plated in 96 or 384-well plates. Twenty four hours post-plating, cells were treated with different concentrations of test compounds ranging from 20 μM to 0.04 nM. Several wells were left untreated as a control. Seventy two hours post-treatment, cell numbers were determined using different techniques; 100 μl per well of methylene blue (Sigma M9140) (0.5% in 50:50 Ethanol:water), or 10-100 μl per well of CellTiter-Glo (Promega #G7573), depending on well size. For methylene blue staining, stain was incubated at room temperature for 30 minutes before plates were rinsed and dye solubilized in 1% N-lauroyl sarcosine, sodium salt, (Sigma L5125, in PBS). Plates were read on a microplate reader, measuring the OD at 620 nm. For CellTiter-Glo, plates were incubated at room temperature for 15 minutes and the chemiluminescent signal was read on the Victor V or Envison 2100 reader.
Percent inhibition of cell growth was expressed as percent proliferation relative to 100% proliferation (control). Concentration of test compound that inhibited 50% of cell growth (IC50) was determined by 4 parameter fit of data using XLfit, (value of no cell control was substracted from all samples for background). The data are shown in Table 1 and Table 2 below and represent a compilation of several different experiments each performed using the general parameters outlined above, although minor variations may have been employed in some instances, in Table 1 and Table 2, +=IC50>1 μM; ++=IC50 0.5-1 μM: +++=IC50<0.5 μM.

Row | IC50 [nM] | SMILES
1 | < 500 | C[C@@H](Oc1cc(-n2cnc3cc(Cl)ccc32)sc1C(N)=O)c1cccc(OC2CCN(CCN)CC2)c1Cl [Example 22, 3-{[(1R)-1-(3-{[1-(2-aminoethyl)-4-piperidinyl]oxy}-2-chlorophenyl)ethyl]oxy}-5-(5-chloro-1H-benzimidazol-1-yl)-2-thiophenecarboxamide]
2 | < 500 | C[C@@H](Oc1cc(-n2cnc3cc(Cl)ccc32)sc1C(N)=O)c1cccc(OC2CCN(CCS(C)(=O)=O)CC2)c1Cl [Example 23, 5-(5-Chloro-1H-benzimidazol-1-yl)-3-({(1R)-1-[2-chloro-3-({1-[2-(methylsulfonyl)ethyl]-4-piperidinyl}oxy)phenyl]ethyl}oxy)-2-thiophenecarboxamide]
3 | < 500 | CC(C)N1CCC(Oc2cccc([C@@H](C)Oc3cc(-n4cnc5cc(Cl)ccc54)sc3C(N)=O)c2Cl)CC1 [Example 24, 5-(5-Chloro-1H-benzimidazol-1-yl)-3-{[(1R)-1-(2-chloro-3-{[1-(1-methylethyl)-4-piperidinyl]oxy}phenyl)ethyl]oxy}-2-thiophenecarboxamide]
4 | < 500 | C[C@@H](Oc1cc(-n2cnc3cc(-c4cnn(C)c4)ccc32)sc1C(N)=O)c1cccc(OCCN2CCOCC2)c1Cl [Example 25, 3-{[(1R)-1-(2-chloro-3-{[2-(4-morpholinyl)ethyl]oxy}phenyl)ethyl]oxy}-5-[5-(1-methyl-1H-pyrazol-4yl)-1H-benzimidazol-1-yl]-2-thiophenecarboxamide]
5 | < 500 | C[C@@H](Oc1cc(-n2cnc3cc(Cl)ccc32)sc1C(N)=O)c1cccc(OCCN2CCOCC2)c1Cl [Example 26, 5-(5-Chloro-1H-benzimidazol-1-yl)-3-{[(1R)-1-(2-chloro-3-{[2-(4-morpholinyl)ethyl]oxy}phenyl)ethyl]oxy}-2-thiophenecarboxamide]
6 | < 500 | C[C@@H](Oc1cc(-n2cnc3cc(Cl)ccc32)sc1C(N)=O)c1cccc(OC[C@H]2CNCCO2)c1Cl [Example 27, 5-(5-Chloro-1H-benzimidazol-1-yl)-3-{[(1R)-1-(2-chloro-3-{[(2R)-2-morpholinomethyl]oxy}phenyl)ethyl]oxy}-2-thiophenecarboxamide]
7 | < 500 | C[C@@H](Oc1cc(-n2cnc3cc(Cl)ccc32)sc1C(N)=O)c1cccc(OC[C@@H]2CNCCO2)c1Cl [Example 28, 5-(5-Chloro-1H-benzimidazol-1-yl)-3-{[(1R)-1-(2-chloro-3-{[(2S)-2-morpholinomethyl]oxy}phenyl)ethyl]oxy}-2-thiophenecarboxamide]
8 | < 500 | C[C@@H](Oc1cc(-n2cnc3cc(-c4cnn(C)c4)ccc32)sc1C(N)=O)c1cccc(OC2CCN(CCF)CC2)c1Cl [Example 29, 3-{[(1R)-1-(2-Chloro-3-{[1-(2-fluoroethyl)-4-piperidinyl]oxy}phenyl)ethyl]oxy}-5-[5-(1-methyl-1H-pyrazol-4-yl)-1H-benzimidazol-1-yl]-2-thiophenecarboxamide]
9 | < 500 | C[C@@H](Oc1cc(-n2cnc3cc(-c4cnn(C)c4)ccc32)sc1C(N)=O)c1cccc(OC2CCN(CCC(F)(F)F)CC2)c1Cl [Example 30, 3-{[(1R)-1-(2-chloro-3-{[1-(3,3,3-trifluoropropyl)-4-piperidinyl]oxy}phenyl)ethyl]oxy}-5-[5-(1-methyl-1H-pyrazol-4-yl)-1H-benzimidazol-1-yl]-2-thiophenecarboxamide]
10 | < 500 | C[C@@H](Oc1cc(-n2cnc3cc(Cl)ccc32)sc1C(N)=O)c1ccc(F)c(OC2CCN(C)CC2)c1Cl [Example 32, 5-(5-Chloro-1H-benzimidazol-1yl)-3-[((1R)-1-{2-chloro-4-fluoro-3-[(1-methyl-4-piperidinyl)oxy]phenyl}ethyl)oxy]-2-thiophenecarboxamide]
11 | < 500 | C[C@@H](Oc1cc(-n2cnc3cc(-c4cnn(C)c4)ccc32)sc1C(N)=O)c1ccc(F)c(OC2CCNCC2)c1Cl [Example 33, 3-({(1R)-1-[2-Chloro-4-fluoro-3-(4-piperidinyloxy)phenyl]ethyl}oxy)-5-[5-(1-methyl-1H-pyrazol-4-yl)-1H-benzimidazol-1-yl]-2-thiophenecarboxamide]
